Experiments:
platelet aggregation = experiment: inhibition of platelet aggregation, hamster; assay type: cell-based; details: Mesocricetus auratus, read-out: concentration (IC50) necessary for inhibition of platelet aggregation
Experimental: The platelets aggregation was measured by the Born's method (G. V. R. Born, Nature 194, 927 (1962)). Blood was collected through an injector containing a 3.8% sodium citrate solution from the aorta abdominalis (final concentration: 0.38%). Centrifugation was carried out at 900 rpm (about 80× g) for 10 min to collect platelet-rich plasma, and centrifugation was further carried out at 3,000 rpm (about 880× g) for 10 min to collect platelet-poor plasma, followed by the measurement of aggregation with an aggregometer. In this case, ADP (final concentration: 5 μM) was used as an aggregation inducer.

[1] = tested on: hamster acute ischemia-reperfusion model; experiment: hamster acute ischemia-reperfusion model; assay type: in vivo; details: for reduction of myocardial infarct size (IS/AR): sodium salt mixed with arginine; for myocardial infarct size (IS/AR): average±SE, n=5, solvent administration group 49.3±7.1%
Experimental: A polyethylene tube was inserted into the carotid artery and the survical vein of Syrian male hamsters (10 to 13 weeks old) under pentobarbital anesthesia (60 mg/kg, i.p.). An electrocardiogram (I or II leading) was measured through a bioelectricity amplifier by leading from electrodes which had pierced the limbs. A polyethylene tube was inserted into the trachea, and artificial respiration was carried out with an artificial respirator (amount of ventilation: 10 ml/kg/stroke, number of times of ventilation: 70 strokes/min). The blood pressure was measured through a blood pressure amplifier, and the heart rate was measured with a heart rate unit using blood pressure as a trigger. The animals underwent thoracotomy, and the coronary, together with the myocardium, was then occluded using a suture with a needle. Ischemia for 90 min was followed by reperfusion for 2 hr to quantitatively determine myocardial infarct size.
A sodium salt of the compound represented by formula (IV) was mixed with a 2-fold equivalent of arginine, and the mixture was dissolved in a 5% glucose solution. The dose volume was 2 ml/kg+2 ml/kg/h (bolus +infusion). For a solvent administration group, a 0.64 mg/ml arginine/5% glucose solution was used. The medicament was continuously administered through an infusion pump for the period starting with one min before ischemia and ending with the completion of the experiment. After reperfusion for 2 hr, the animals were slaughtered by intraveneous injection of 1,000 U/kg of heparin and an excessive amount of pentobarbital, and the heart was then removed. After perfusion with a Ringer solution, blood was washed away from the heart, and the coronary artery was re-occluded. After the reocclusion, 0.4 ml of 0.1% Evans blue was injected through the aorta. The heart was rinsed with physiological saline and was then cut into about 1 mm slices. For each slice, the left ventricle (LV) was separated, and the weight of the left ventricle and the weight of the area-at-risk (AR) were measured. The area-at-risk was stained with a 50 mM Tris.HCl (pH 7.4, 37° C.) buffer containing 1.5% triphenyltetrazolium chloride heated at 37° C., and the weight of the infarct area (IS; infarct size) was measured. The measurement of the weight was carried out under a blind.

O=C(NCC(NS(=O)(=O)c1ccccc1)C(=O)O)c1ccc(N2CCC(NC3=NCCCN3)CC2)c(F)c1 (stereo in doubt) [formula (IV), (2S)-Benzenesulfonylamino-3-[3-fluoro-4-{4-(1,4,5,6-tetrahydropyrimidin-2-ylamino)-piperidin-1-yl}benzoylamino]propionic Acid]
IC50 (platelet aggregation): 1.9 µM
reduction of myocardial infarct size (IS/AR) ([1]; group H 1.0 mg/kg+1.0 mg/kg/h (bolus+infusion), significant difference): 49.3%
myocardial infarct size (IS/AR) ([1]; group H 1.0 mg/kg+1.0 mg/kg/h): 25.0±2.8%
reduction of myocardial infarct size (IS/AR) ([1]; group L 0.33 mg/kg+0.33 mg/kg/h (bolus+infusion)): 30.9%
myocardial infarct size (IS/AR) ([1]; group L 0.33 mg/kg+0.33 mg/kg/h): 34.0±5.0%

Reference: patent publication US20030040531A1, “Remedies for reperfusion injury containing integrin alphanubeta 3 antagonist” (priority 2000, published 2003)
